Measurements: paper PMC12615518, “Discovery of CRBN-recruiting PROTAC degraders of the METTL3-METTL14 complex” (Medicinal Chemistry Research, 2025)
Like-named read-outs stand apart in the source and are kept apart here.

Columns and labels:
METTL3 [1] = tested on: METTL3; design: method as in PMID 32159918; details: read-out: IC50 METTL3 activity, reader-based HTRF assay; cited from earlier work
METTL14 = molecular target: T1, METTL14 (Homo sapiens, UniProt Q9HCE5); assay: Immunoblotting (Western blot) degradation of METTL14 in MV4-11 cells; type: cell-based; details: MV4-11 cells, 1 µM, 24 h, Fig. 4A right
T1 construct: Following treatment, total cellular proteins were extracted using RIPA buffer; endogenous in cells; host or cells: MV4-11 (MV4.11) human AML cells, ATCC
Description: (§1) All cell lines were maintained under standard conditions in a humidified atmosphere at 37 °C with 5% CO₂.
(§2) Western Blot Analysis: Following treatment, total cellular proteins were extracted using RIPA buffer (Auragene, Changsha, China). […] After washing, membranes were incubated with horseradish peroxidase (HRP)-conjugated secondary antibodies (anti-rabbit or anti-mouse IgG; 1:5000) for 2 hours at room temperature. Protein bands were visualized using an enhanced chemiluminescence (ECL) detection kit (Amersham Pharmacia), following the manufacturer's protocol. Band intensities were quantified using ImageJ software and normalized to ACTIN as a loading control. Data was analyzed using GraphPad Prism 9.

METTL3 [2] = tested on: METTL3; design: method as in PMID 34431664; details: read-out: IC50 METTL3 inhibition, enzyme-based assays; cited from earlier work
METTL3 [3] = molecular target: METTL3 (Homo sapiens, UniProt Q86U44); assay: Immunoblotting (Western blot) degradation of METTL3 in MV4-11 cells; type: cell-based; design: Following treatment, total cellular proteins were extracted using RIPA buffer; endogenous in cells; host or cells: MV4-11 (MV4.11) human AML cells, ATCC; details: MV4-11 cells, 1 µM, 24 h, Fig. 4A right
Description: as §1, §2

METTL3/14 [4] = tested on: METTL3/14; design: method as in PMID 33902106; details: read-out: IC50 METTL3/14 catalytic activity inhibition; cited from earlier work
METTL3/14 [5] = molecular target: METTL3/14; design: method as in PMID 33902106; details: read-out: METTL3/14 binding affinity (Kd); cited from earlier work
[6] = tested on: human AML patient-derived xenografts (PDX) models; design: method as in PMID 33902106; details: cited from earlier work
[7] = tested on: primary mouse MLL-AF9/Flt3^Itd/+ model; design: method as in PMID 33902106; details: cited from earlier work

T1 sequence (Q9HCE5 whole entry): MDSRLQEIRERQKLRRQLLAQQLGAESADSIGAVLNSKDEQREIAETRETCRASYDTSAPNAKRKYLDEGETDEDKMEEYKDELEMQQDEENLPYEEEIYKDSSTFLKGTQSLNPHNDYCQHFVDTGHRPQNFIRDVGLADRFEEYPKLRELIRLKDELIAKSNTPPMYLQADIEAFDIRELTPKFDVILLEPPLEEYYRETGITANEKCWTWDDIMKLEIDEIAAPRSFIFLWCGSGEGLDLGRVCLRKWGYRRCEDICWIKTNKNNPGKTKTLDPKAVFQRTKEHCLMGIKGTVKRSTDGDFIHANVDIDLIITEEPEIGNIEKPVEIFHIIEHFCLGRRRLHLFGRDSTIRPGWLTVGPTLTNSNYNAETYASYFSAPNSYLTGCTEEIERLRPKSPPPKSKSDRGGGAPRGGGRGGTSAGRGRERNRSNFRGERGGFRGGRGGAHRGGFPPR
T1 sequence (Q86U44 2-580 partner): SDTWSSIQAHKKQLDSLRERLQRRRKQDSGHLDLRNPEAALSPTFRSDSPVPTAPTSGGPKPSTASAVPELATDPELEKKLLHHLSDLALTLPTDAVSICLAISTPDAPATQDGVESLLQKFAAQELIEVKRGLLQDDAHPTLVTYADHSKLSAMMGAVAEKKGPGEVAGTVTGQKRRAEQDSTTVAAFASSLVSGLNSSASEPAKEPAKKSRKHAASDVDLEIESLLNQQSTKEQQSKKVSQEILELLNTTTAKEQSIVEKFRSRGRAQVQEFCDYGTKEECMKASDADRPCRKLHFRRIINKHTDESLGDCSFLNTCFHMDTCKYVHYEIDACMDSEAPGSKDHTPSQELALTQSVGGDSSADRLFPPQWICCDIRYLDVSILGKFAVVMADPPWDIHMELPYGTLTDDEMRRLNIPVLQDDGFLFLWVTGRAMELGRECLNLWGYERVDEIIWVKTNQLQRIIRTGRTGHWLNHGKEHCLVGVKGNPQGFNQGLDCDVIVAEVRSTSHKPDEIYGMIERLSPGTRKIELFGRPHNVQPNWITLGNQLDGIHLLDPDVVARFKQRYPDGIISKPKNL
Chain of METTL3 (Homo sapiens, UniProt Q86U44) (Q86U44 2-580 limits assumed): as the sequence (Q86U44 2-580 partner) above
Chain of METTL3 (Homo sapiens, UniProt Q86U44) (Q9HCE5 whole entry partner): as the sequence (Q9HCE5 whole entry) above

Nc1ncnc2c1ncn2[C@@H]1O[C@H](C(=O)NCCCCN2CCCC2)[C@@H](O)[C@H]1O [Compound 1]
IC50 (METTL3 [1]): 8.7 µM

CNc1cc(N2CCC3(CC2)CN(c2cc(F)c(CN4CCC(C)(C)CC4)cc2F)CC(=O)N3)ncn1 [UZH2, reference compound]
degradation of METTL14 at 1 µM (in words) (METTL14): not degraded | IC50 (METTL3 [2]): 0.005 µM | degradation of METTL3 at 1 µM (in words) (METTL3 [3]): not degraded

STM2457
IC50 (METTL3/14 [4]): 0.0169 µM | Kd (METTL3/14 [5]): 0.0014 µM | anti-leukemic effect [6]: anti-leukemic effect | anti-leukemic effect [7]: anti-leukemic effect
